In ChEMBL document CHEMBL5726485, “Polycyclic pyridone derivative having integrase inhibitory activity” (2019):

Experiment: Anti-HIV Activity: Previously, a series of two-fold dilution on test samples were carried out in a 96-well plate (50 μL/well). Two plates were made for measuring anti-HIV activity and measuring cytotoxicity. For each agent, measurement in duplicate was carried out. An MT-4 cell suspension of 2.5×10^5/mL was dispensed at 100 μL/well onto the 96-well plate containing the test samples. An HIV virus solution was dispensed at 50 μL/well onto the 96-well plate containing the test samples and the cell. To the plate for measuring cytotoxicity, a culture solution was dispensed at 50 μL/well. It was mixed by a plate mixer, and then incubated in a CO2 incubator for 4 days. […] Thirty microliters of a MTT (3-(4,5-dimethylthiazol-2-yl)-2,5-diphenyltetrazolium bromide) solution was dispensed to each well.A reaction was allowed to occur in a CO2 incubator for an hour. From each well, 150 μL of the supernatant was removed such that cells are not sucked. One-hundred and fifty microliters of a cell lysis solution was added thereto, and then it was mixed well by a plate mixer until the whole cells are lysed. The mixed 96-well plates were measured by a microplate reader at two wavelengths, 560 nm/690 nm. Based on the following calculation formula, 50% HIV inhibition concentration (EC50) was calculated.
Settings: MT4

| Structure (SMILES) | EC50 |
| --- | --- |
| C[C@@H]1C[C@@H](C)N2C(=O)c3c(O)c(=O)c(-c4nnc(Cc5ccc(F)cc5F)s4)cn3C[C@@H]2O1 | 2.7 nM |
| C[C@H]1CCN(C2CC2)[C@@H]2Cn3cc(-c4nnc(Cc5ccc(F)cc5F)s4)c(=O)c(OCc4ccccc4)c3C(=O)N12 | 3 nM |
| O=C1c2c(O)c(=O)c(-c3nnc(Cc4ccc(F)cc4F)s3)cn2C[C@H]2O[C@@H]3CCC[C@@H]3N12 | 1.6 nM |
| COCCN1CN(CC(C)C)n2cc(C(=O)NNC(=S)Cc3ccc(F)cc3F)c(=O)c(O)c2C1=O | 3.4 nM |
| C[C@H]1CCO[C@@H]2Cn3cc(-c4nnc(Cc5ccc(F)cc5F)s4)c(=O)c(O)c3C(=O)N12 | 2.1 nM |
| C[C@H]1CCO[C@@H]2Cn3cc(-c4nnc(Cc5c(F)cc(F)cc5F)s4)c(=O)c(O)c3C(=O)N12 | 1.4 nM |
| CCN1CN(CCOC)C(=O)c2c(O)c(=O)c(-c3ncc(Cc4cccc(Cl)c4F)s3)cn21 | 8.7 nM |
| C[C@@H]1CCC2C(=O)c3c(O)c(=O)c(-c4ncc(Cc5ccc(F)cc5F)s4)cn3C[C@@H]2O1 (stereo partly specified) | 7.4 nM |
| O=C1c2c(O)c(=O)c(-c3ncc(Cc4ccc(F)cc4F)s3)cn2C[C@@H]2CCCCN12 | 11 nM |
| C[C@H]1CCO[C@@H]2Cn3cc(-c4nnc(Cc5ccc(F)c(Cl)c5F)s4)c(=O)c(O)c3C(=O)N12 | 2.3 nM |
| C[C@@H]1C[C@@H](C)N2C(=O)c3c(O)c(=O)c(-c4nnc(Cc5cccc(Cl)c5F)s4)cn3C[C@@H]2O1 | 2.8 nM |
